The source of these data is patent US20090075935A1, “COMPOSITION COMPRISING AT LEAST ONE C-GLYCOSIDE DERIVATIVE AND AT LEAST ONE HYALURONIC ACID AND ITS COSMETIC USE” (L'OREAL, priority 2006, published 2009).

In the test the test system is keratinocyte transglutaminase (TGk). Description: Assaying of keratinocyte transglutaminase (TGk) activity in mitomycin-pretreated NHEKs in deficient medium (radiochemical assay). The class given is cell-based, human. Further details: key to Significant variation relative to the control: NS = not significant. To be noted: for % Activity relative to the control / Significant variation relative to the control: TGk activity, medium with mitomycin, depleted medium, 96 hours. From the text: For this, normal human epidermal keratinocytes (NHEKs), pretreated with mitomycin so as to prevent proliferation thereof, in a deficient medium made up of 40% of depleted SFM medium and 60% of Earle's balanced salt solution (EBSS) buffer were placed in culture. The metabolism of these cells having been thus slowed down, their ability to differentiate is then quantified by assaying, using a standard radiochemical assay, the keratinocyte transglutaminase activity (TGk) of the NHEKs pretreated with the active agents. […] Normal human keratinocytes were cultured at 37° C. and 5% CO2 for 24 h in complete SFM medium. The cell divisions were then blocked by treatment with mitomycin C (10 μg/ml) for 2 hours at 37° C. and 5% CO2. The cells were then incubated for 96 hours in deficient or nondeficient (control) medium containing or not containing various concentrations of the test or reference products. […] The treatments were carried out in triplicate (n=3). At the end of the incubation, the TGk membrane enzyme was extracted in the presence of Triton X-100 and the TGk activity was determined by measuring the covalent addition of tritiated putrescine, at a final concentration of 2 μCi/ml, to caseine (acceptor protein, 2 mg/ml final concentration). The caseine was precipitated by addition of trichloroacetic acid (TCA) and the precipitates were recovered on filters and a collector and then the dry filters were counted by liquid scintillation.

Regarding `[Ca+2].[Cl-].[Cl-]` [CaCl2, Calcium chloride, reference compound], where the note is “1.5 mM”, the “effect on the TGk activity of the keratinocytes” value is reported as “clearly increased the TGk activity”, the “% Activity relative to the control” value came to 557% and the “Significant variation relative to the control” value is listed as “+457%”.

As to `CC(O)CO` (stereo not drawn) [1,2-propanediol], under “0.16%”, the “% Activity relative to the control” value turned out to be 87% and the “Significant variation relative to the control” value was “NS”. Further, the “effect on the TGk activity” value (tested at 0.8%) is “did not modify the activity”.

Take Hyaluronic acid: for the setting “0.02%”, the “% Activity relative to the control” value was found to be 88% and the “Significant variation relative to the control” value is on record as “NS”. The “effect on the keratinocyte transglutaminase activity” value (tested alone at 0.02%) is given as “no effect”.

For the compound `CC(O)C[C@@H]1OC[C@@H](O)[C@H](O)[C@H]1O` (stereo partly drawn) [C-β-D-xylopyranoside-2-hydroxypropane], where the note is “0.06%”, the “% Activity relative to the control” value was determined as 128% and the “Significant variation relative to the control” value is reported as “NS”. Moreover, the “effect on the TGk activity” value (tested at 0.06%) is listed as “no significant effect”.
